How the values were obtained:
Influenza A virus [1] = assay: Antiviral actiivty against Influenza A (A/Regensburg/D6/2009 (H1N1)) infected in human A549 cells; assay type: functional, organism-based
[2] = Cytotoxicity against human A549 cells; assay type: toxicity, cell-based
Hepatitis C virus [3] = assay: microbe, parasite or virus in culture
Hepatitis C virus [4] = assay: Antiviral activity against HCV GT1b-genotype assessed as inhibition of viral replication; assay type: functional, organism-based, Hepacivirus hominis
in vitro [5] = conditions: human, Huh-7 cells
Ebolavirus [6] = assay: microbe, parasite or virus in culture; conditions: Orthoebolavirus
Ebolavirus [7] = assay: microbe, parasite or virus in culture; assay type: functional, organism-based; conditions: Orthoebolavirus
Marburgvirus [8] = assay: microbe, parasite or virus in culture; assay type: functional, organism-based; conditions: Orthomarburgvirus
Ebolavirus [9] = assay: microbe, parasite or virus in culture; conditions: Orthoebolavirus, Huh-7
[10] = test system: Vesicular stomatitis virus; assay: microbe, parasite or virus in culture
Lassa virus [11] = assay: microbe, parasite or virus in culture; conditions: Mammarenavirus lassaense
Ebolavirus [12] = assay: microbe, parasite or virus in culture; conditions: Orthoebolavirus; remark: listed apart in the source
Marburgvirus [13] = assay: microbe, parasite or virus in culture; conditions: Orthomarburgvirus
Lassa virus [14] = assay: microbe, parasite or virus in culture; conditions: Mammarenavirus lassaense; remark: listed apart in the source
Lassa virus [15] = assay: microbe, parasite or virus in culture; conditions: Mammarenavirus lassaense, A549
in vitro [16] = conditions: chlorocebus sabaeus, vero
[17] = biological target: Tyrosine-protein kinase JAK2 (Homo sapiens, UniProt O60674)
SARS-CoV-2 [18] = assay: microbe, parasite or virus in culture; assay type: functional, organism-based; conditions: Severe acute respiratory syndrome coronavirus 2, Huh-7
SARS-CoV-2 [19] = assay: microbe, parasite or virus in culture; assay type: functional, organism-based; conditions: Severe acute respiratory syndrome coronavirus 2
in vitro [20] = conditions: chlorocebus sabaeus, vero c1008
Janus Kinase (JAK) = Janus Kinase (JAK) (Homo sapiens, UniProt P52333+P23458+O60674+P29597); assay type: protein assay
in vitro [21] = conditions: dog, MDCK cells
Influenza A virus [22] = assay: microbe, parasite or virus in culture; assay type: functional, organism-based
SARS-CoV-2 [23] = assay: microbe, parasite or virus in culture; assay type: functional, organism-based, Vero E6; conditions: Severe acute respiratory syndrome coronavirus 2, Vero C1008
[24] = Volume of distribution at steady state in Han-Wistar rat plasma at 5 mg/kg, iv at […] LC-MS/MS analysis; assay type: ADME, organism-based; conditions: time 0.083 hrs, read-out: Vdss
[25] = Volume of distribution at steady state in CD-1 mouse plasma at 10 mg/kg, iv at […] LC-MS/MS analysis; assay type: ADME, organism-based; conditions: time 0.083 hrs, read-out: Vdss
Vero C1008 = assay: Cytotoxicity against African green monkey Vero E6 cells at 250 nM; assay type: toxicity, cell-based; conditions: chlorocebus sabaeus, vero c1008, 0.25 µM
[26] = Volume of distribution at steady state in Beagle dog plasma at 1 mg/kg, iv at […] LC-MS/MS analysis; assay type: ADME, organism-based, Canis lupus familiaris; conditions: time 0.083 hrs, read-out: Vdss
[27] = Volume of distribution at steady state in cynomolgus monkey plasma at 3 mg/kg, iv at […] LC-MS/MS analysis; assay type: ADME, organism-based, Macaca fascicularis; conditions: time 0.083 hrs, read-out: Vdss
Influenza A virus [28] = assay: microbe, parasite or virus in culture; assay type: functional, organism-based; conditions: H1N1pdm09
Influenza A virus [29] = assay: microbe, parasite or virus in culture; assay type: functional, organism-based; conditions: H3N2
Lyssavirus rabies = assay: microbe, parasite or virus in culture; assay type: functional, organism-based
[30] = Cytotoxicity against golden hamster BSR cells; assay type: toxicity, cell-based, Mesocricetus auratus
Influenza A virus [31] = assay: Antiviral activity against influenza A/Regensburg/D6/2009 virus; assay type: functional, organism-based
[32] = biological target: Receptor tyrosine-protein kinase erbB-2 (Homo sapiens, UniProt P04626); assay: Inhibition of HER2/ErbB-2 (unknown origin)
Influenza A virus [33] = assay: Antiviral activity against influenza A virus infected in human A549 cells assessed as inhibition of viral replication at 10 uM relative to control; assay type: functional; design: scale not given: the % may be the effect or the level left
[34] = biological target: AP2-associated protein kinase 1 (Homo sapiens, UniProt Q2M2I8)
Chain of AP2-associated protein kinase 1 (Q2M2I8 whole entry): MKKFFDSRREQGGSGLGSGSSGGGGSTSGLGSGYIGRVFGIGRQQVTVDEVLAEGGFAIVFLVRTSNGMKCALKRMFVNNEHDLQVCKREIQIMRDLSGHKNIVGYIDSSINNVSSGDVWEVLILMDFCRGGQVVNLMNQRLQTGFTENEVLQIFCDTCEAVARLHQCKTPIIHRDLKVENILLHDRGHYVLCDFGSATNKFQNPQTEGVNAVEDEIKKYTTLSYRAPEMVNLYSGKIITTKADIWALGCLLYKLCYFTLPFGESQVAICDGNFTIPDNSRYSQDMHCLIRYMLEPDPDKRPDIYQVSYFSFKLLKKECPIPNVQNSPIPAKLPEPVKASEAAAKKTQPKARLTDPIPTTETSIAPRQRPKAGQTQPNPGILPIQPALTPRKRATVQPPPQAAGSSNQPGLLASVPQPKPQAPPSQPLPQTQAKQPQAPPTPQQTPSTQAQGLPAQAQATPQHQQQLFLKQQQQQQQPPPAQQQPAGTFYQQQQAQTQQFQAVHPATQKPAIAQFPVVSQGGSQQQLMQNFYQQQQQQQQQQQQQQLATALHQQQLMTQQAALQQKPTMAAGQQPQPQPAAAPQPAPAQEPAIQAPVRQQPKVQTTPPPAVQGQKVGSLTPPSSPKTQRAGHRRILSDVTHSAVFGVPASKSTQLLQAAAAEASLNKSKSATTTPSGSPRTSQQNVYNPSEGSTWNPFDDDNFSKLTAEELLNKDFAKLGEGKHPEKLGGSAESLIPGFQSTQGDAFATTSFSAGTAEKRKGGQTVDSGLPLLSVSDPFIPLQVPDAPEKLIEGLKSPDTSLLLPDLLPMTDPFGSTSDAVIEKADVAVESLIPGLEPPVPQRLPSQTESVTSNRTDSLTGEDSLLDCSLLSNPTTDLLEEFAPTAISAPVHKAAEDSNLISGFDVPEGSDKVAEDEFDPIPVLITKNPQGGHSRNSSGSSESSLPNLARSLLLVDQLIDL

Chain of Tyrosine-protein kinase JAK2 (O60674 whole entry): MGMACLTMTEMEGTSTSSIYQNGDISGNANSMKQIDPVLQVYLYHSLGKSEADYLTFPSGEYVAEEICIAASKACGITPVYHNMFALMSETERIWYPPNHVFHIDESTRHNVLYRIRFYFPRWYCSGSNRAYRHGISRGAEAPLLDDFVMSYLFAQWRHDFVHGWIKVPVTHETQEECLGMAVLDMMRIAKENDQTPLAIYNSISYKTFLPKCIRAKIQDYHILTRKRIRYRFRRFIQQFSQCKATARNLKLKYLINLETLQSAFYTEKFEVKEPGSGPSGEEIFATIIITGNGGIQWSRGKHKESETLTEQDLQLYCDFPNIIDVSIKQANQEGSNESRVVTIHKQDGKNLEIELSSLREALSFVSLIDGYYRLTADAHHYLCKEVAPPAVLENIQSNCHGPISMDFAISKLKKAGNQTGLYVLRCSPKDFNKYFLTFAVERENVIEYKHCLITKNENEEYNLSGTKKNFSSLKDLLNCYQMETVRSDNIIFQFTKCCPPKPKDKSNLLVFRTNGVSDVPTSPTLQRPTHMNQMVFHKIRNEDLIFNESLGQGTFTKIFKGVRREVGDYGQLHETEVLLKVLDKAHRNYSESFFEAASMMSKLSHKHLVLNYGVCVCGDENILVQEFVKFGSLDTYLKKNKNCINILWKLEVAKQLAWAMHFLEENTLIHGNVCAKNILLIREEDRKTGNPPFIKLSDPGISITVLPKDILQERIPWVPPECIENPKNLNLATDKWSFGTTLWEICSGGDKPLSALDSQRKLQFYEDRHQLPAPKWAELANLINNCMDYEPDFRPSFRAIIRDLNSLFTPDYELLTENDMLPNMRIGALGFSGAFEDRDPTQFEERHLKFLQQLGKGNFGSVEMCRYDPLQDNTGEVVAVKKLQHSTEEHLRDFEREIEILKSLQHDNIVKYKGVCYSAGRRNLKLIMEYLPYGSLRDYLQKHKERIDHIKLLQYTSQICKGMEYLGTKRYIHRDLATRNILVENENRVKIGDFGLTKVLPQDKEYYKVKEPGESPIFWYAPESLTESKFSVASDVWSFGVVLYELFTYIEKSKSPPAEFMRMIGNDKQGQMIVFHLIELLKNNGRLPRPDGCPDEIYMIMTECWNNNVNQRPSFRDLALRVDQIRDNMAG
Chain of Receptor tyrosine-protein kinase erbB-2 (P04626 whole entry): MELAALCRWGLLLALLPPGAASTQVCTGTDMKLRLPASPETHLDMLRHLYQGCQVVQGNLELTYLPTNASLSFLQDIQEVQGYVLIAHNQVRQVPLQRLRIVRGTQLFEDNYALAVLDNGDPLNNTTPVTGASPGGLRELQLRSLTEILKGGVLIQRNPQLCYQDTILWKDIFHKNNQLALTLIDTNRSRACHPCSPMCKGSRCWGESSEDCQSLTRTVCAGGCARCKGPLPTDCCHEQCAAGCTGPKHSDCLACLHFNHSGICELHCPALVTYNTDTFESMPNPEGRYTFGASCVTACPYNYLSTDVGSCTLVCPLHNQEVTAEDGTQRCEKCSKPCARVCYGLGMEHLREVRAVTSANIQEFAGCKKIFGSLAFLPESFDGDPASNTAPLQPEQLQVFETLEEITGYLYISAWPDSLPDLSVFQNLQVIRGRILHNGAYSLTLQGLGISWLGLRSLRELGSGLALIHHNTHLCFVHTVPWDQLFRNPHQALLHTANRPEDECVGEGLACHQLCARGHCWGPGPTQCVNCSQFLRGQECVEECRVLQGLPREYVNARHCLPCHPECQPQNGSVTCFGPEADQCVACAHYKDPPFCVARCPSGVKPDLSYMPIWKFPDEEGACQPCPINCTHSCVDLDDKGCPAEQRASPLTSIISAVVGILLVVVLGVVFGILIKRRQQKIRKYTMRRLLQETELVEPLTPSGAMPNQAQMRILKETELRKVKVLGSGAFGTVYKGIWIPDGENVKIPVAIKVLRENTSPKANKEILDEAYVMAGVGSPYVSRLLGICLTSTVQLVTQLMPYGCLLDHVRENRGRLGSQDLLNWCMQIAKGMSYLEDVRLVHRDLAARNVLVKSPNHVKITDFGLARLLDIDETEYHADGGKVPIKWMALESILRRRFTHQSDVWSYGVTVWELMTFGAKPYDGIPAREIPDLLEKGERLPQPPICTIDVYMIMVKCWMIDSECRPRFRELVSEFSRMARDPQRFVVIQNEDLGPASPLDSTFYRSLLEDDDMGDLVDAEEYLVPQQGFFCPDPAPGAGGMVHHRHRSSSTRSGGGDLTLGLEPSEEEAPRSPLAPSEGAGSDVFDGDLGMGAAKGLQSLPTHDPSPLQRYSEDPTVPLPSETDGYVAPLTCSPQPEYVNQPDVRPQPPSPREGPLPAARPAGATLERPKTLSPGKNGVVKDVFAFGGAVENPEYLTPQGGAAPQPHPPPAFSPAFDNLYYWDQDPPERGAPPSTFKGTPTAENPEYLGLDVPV

`O=C(NOCC1CC1)c1ccc(F)c(F)c1Nc1ccc(I)cc1Cl` [CI-1040] gave an EC50 (Influenza A virus [1]) of 0.026 µM and a CC50 [2] of 312 µM.

In the case of `CCc1cnn2c(NCc3ccc[n+]([O-])c3)cc(N3CCCC[C@H]3CCO)nc12` [DINACICLIB], the CC50 [2] is reported as greater than 100 µM.

`CC(C)S(=O)(=O)n1c(N)nc2ccc(/C(=N/O)c3ccccc3)cc21` [ENVIROXIME] gave an EC50 (Hepatitis C virus [3]) of 0.2 µM, an EC50 (Hepatitis C virus [4]) of 0.1 µM and a CC50 (in vitro [5]) of 25 µM.

In the case of `CN1CCC(Nc2ncc3ncnc(Nc4ccc(F)c(Cl)c4)c3n2)CC1` [FALNIDAMOL], the EC50 (Ebolavirus [6]) is reported as 1.2 µM, the EC50 (Ebolavirus [7]) is reported as 1.1 µM and the EC50 (Marburgvirus [8]) is reported as 1.8 µM. It also gave an EC50 (Ebolavirus [9]) of 1.1 µM, an EC50 [10] of 30.9 µM and an EC50 (Lassa virus [11]) of 7.5 µM. It also gave an EC50 (Ebolavirus [12]) of 1.6 µM, an EC50 (Marburgvirus [13]) of 1.8 µM and an EC50 (Lassa virus [14]) of 3.2 µM. The EC50 (Lassa virus [15]) was 3.2 µM and the CC50 (in vitro [16]) was 29.1 µM.

Work on `Cc1cc(Nc2cc(CN3CCOCC3)c3nc(C)c(Cc4ccc(Cl)cc4F)n3n2)n[nH]1` [GANDOTINIB] yielded an IC50 [17] of 0.003 µM.

Work on `CCc1nc(C(N)=O)c(Nc2ccc(N3CCC(N4CCN(C)CC4)CC3)c(OC)c2)nc1NC1CCOCC1` [GILTERITINIB] yielded an IC50 (SARS-CoV-2 [18]) of 0.225 µM, an EC50 (SARS-CoV-2 [19]) of 0.225 µM and a CC50 (in vitro [20]) greater than 0.5 µM.

With `N#CCC1CCN(c2nc(Nc3ccc(N4CCC(O)CC4)cc3)c3c(=O)[nH]ncc3n2)CC1` [GUSACITINIB] the IC50 (Janus Kinase (JAK)) was 0.005 µM.

`CCS(=O)(=O)Nc1ccc2c(c1)/C(=C(/Nc1ccc(CN3CCCCC3)cc1)c1ccccc1)C(=O)N2` [HESPERADIN] gave a CC50 (in vitro [21]) of 21.3 µM and an EC50 (Influenza A virus [22]) of 0.28 µM.

Work on `Cc1cc(Nc2cc3ncccc3c(N[C@@H]3C[C@H]4CC[C@@H](C3)N4CCC#N)n2)n[nH]1` [IZENCITINIB] yielded an IC50 (SARS-CoV-2 [18]) of 0.02 µM and an EC50 (SARS-CoV-2 [23]) of 0.02 µM.

For `O=C(NOC[C@H](O)CO)c1ccc(F)c(F)c1Nc1ccc(I)cc1F` [MIRDAMETINIB], the CC50 [2] was greater than 100 µM.

In the case of `Cc1cn(-c2cc(NC(=O)c3ccc(C)c(Nc4nccc(-c5cccnc5)n4)c3)cc(C(F)(F)F)c2)cn1` [NILOTINIB], the EC50 (SARS-CoV-2 [19]) is reported as 0.08 µM, the Vd at […] [24] is reported as 0.55 L/kg and the Vd at […] [25] is reported as 0.55 L/kg. The Activity (Vero C1008) was “Non-Toxic”, the Vd at […] [26] was 0.55 L/kg and the Vd at […] [27] was 0.55 L/kg.

Work on `C[C@H](Nc1cc(-c2cnn(C)c2)cc(Nc2cnccn2)n1)c1ccc(F)cc1` [NS-018] yielded an IC50 [17] of 0.00027 µM.

With `COc1cc(F)c(F)c(Nc2ccc(I)cc2F)c1NS(=O)(=O)C1(C[C@H](O)CO)CC1` [REFAMETINIB] the CC50 [2] was greater than 100 µM and the IC50 (Influenza A virus [28]) was 0.06 µM.

In the case of `CNC(=O)c1cc(Oc2ccc(NC(=O)Nc3ccc(Cl)c(C(F)(F)F)c3)c(F)c2)ccn1` [REGORAFENIB], the CC50 [2] is reported as 14.2 µM and the EC50 (Influenza A virus [29]) is reported as 0.89 µM.

`CC(=O)c1c(O)c(C)c(O)c(Cc2c(O)c3c(c(C(=O)/C=C/c4ccccc4)c2O)OC(C)(C)C=C3)c1O` [ROTTLERIN] gave an EC50 (Lyssavirus rabies) of 1 µM and a CC50 [30] of 100 µM.

With `Cn1cnc2c(F)c(Nc3ccc(Br)cc3Cl)c(C(=O)NOCCO)cc21` [SELUMETINIB] the EC50 (Influenza A virus [31]) was 0.75 µM, the CC50 [2] was greater than 100 µM and the EC50 (Influenza A virus [28]) was 0.75 µM.

For `CC(C)(C)c1cc(/C=C(\C#N)C(N)=S)cc(C(C)(C)C)c1O` [TYRPHOSTIN AG 879], the IC50 [32] was 1 µM, the IC50 (Influenza A virus [22]) was 10 µM and the CC50 [2] was greater than 81 µM. It also gave an Activity (Influenza A virus [33]) of 50%.

`CC[C@@H]1CN(C(=O)NCC(F)(F)F)C[C@@H]1c1cnc2cnc3[nH]ccc3n12` [UPADACITINIB] gave a Kd [34] of 9.9 µM.

For `CNC(=O)c1cccc(-c2ccc3c(N4CCOC[C@@H]4C)nc(N4CCOC[C@@H]4C)nc3n2)c1` [VISTUSERTIB], the EC50 (SARS-CoV-2 [19]) was 0.0159 µM and the Activity (Vero C1008) was “Non-Toxic”.

— ChEMBL document CHEMBL5131375, “Recent Developments in the Use of Kinase Inhibitors for Management of Viral Infections” (J Med Chem, 2022)
